These are literature values, as cited in patent US20120093882A1 (priority 2009, published 2012).

Molecules are shown by their SMILES.

The conditions of data set [1]: dissolved in ultra-pure water, natural midsummer sunlight, maximum of 145 h.
The conditions of data set [2]: after oral administration.

In the case of `O=C(O)Cc1ccccc1Nc1c(Cl)cccc1Cl` [Diclofenac], the “degradation on exposure to sunlight” value in data set [1] was “Fast degradation”. Further, in data set [2], the absorption entry is “almost completely absorbed” and the hepatic first-pass metabolism is 50%.
